Measured values from US20240174727A1, “LONG-ACTING NATRIURETIC PEPTIDES AND USES THEREOF” (Eli Lilly and Company, priority 2022, published 2024).
Where two headings read alike, the source gives them in different places. Numbered stars: 1 amine (or outer) side, 2 acyl side, 3 side chain; on linkers, the order of the positions; unused ones are H or OH. Bridge positions count the residues as written; N and C are the ends. Square brackets hold non-standard residues; d marks the D form. Peptide text beside a SMILES is read from it. * marks the point of attachment. C20 diacid = O=C(O)CCCCCCCCCCCCCCCCCCC(=O)*; γGlu = O=C(O)[C@H](CCC(=O)[*:2])N[*:1]; 4Pal = N[C@@H](Cc1ccncc1)C(=O)O

Target: T1, rat NPRA (Rattus norvegicus, UniProt P18910)
T1 construct: Full-Length cDNA Cloning and Generation of Cell Lines Overexpressing Natriuretic Peptide Receptors (NPRs); expressed in transfected cells; host or cells: Jump-in T-Rex HEK293 cells, pJTI R4 CMV-TO MCS pA vector, tetracycline induction
T1 sequence (P18910 29-1057): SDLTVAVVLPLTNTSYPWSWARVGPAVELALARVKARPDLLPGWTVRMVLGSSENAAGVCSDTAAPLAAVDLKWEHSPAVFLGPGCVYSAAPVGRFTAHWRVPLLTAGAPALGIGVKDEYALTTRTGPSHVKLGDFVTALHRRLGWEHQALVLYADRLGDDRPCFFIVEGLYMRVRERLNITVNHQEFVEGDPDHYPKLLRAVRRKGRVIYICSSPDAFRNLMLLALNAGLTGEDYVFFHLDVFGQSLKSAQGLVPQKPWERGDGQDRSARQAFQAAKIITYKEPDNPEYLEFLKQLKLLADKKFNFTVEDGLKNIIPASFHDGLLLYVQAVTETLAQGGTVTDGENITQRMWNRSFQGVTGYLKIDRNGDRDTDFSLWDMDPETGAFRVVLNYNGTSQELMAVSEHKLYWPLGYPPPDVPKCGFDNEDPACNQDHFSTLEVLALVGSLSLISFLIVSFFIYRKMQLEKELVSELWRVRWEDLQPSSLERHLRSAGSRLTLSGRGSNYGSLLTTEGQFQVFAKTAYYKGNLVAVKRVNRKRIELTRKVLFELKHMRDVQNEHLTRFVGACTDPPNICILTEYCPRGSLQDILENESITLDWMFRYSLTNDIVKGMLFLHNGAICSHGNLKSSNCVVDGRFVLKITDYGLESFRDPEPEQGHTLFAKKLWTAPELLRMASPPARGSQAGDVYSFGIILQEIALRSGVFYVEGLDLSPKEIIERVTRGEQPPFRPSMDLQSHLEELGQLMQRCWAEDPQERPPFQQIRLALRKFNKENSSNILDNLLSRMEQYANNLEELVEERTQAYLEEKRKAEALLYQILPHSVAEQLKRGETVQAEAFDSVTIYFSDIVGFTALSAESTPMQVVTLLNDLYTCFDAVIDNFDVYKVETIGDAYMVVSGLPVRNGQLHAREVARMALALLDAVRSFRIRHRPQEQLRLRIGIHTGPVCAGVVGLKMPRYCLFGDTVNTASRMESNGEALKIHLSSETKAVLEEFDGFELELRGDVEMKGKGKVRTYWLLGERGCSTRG
Assay: Rat NPRA cGMP activity assay (HTRF) in HEK293 cells overexpressing NPRA
Type: cell-based
Experimental: All sequences were verified by full-length sequencing performed by ACGT DNA Sequencing Services (Wheeling, IL). The target cDNA was cloned into pJTI R4 CMV-TO MCS pA vector and then co-transfected with pJT1R4 Int vector into Jump-in™ T-Rex™ HEK293 cells for mammalian inducible expression using Jump-in™ T-Rex™ HEK293 kit and Lipofectamine LTX and Plus Reagent following manufacturer's protocols, as briefly described below.
Jump-in™ T-Rex™ HEK293 cells were plated in a BioCOAT® poly-D-lysine coated 6-well plate (Becton Dickinson, cat no. 354413) at 1 million cells/well in 2 mL culture medium and incubated for 18 h at 37° C. and 5% CO2 to 50-70% confluence. A cDNA mix was made in a 50 mL tube by adding 1.5 μg target cDNA, 1.5 μg pJT1R4 Int vector, 3 μL Plus Reagent, and 300 μL Opti-MEM I sequentially into the tube. A reagent mix was made in a separate 50 mL tube by adding 7.5 μL Lipofectamine LTX into 300 μL Opti-MEM I. The mixtures were incubated for 5 min at room temperature. The cDNA mix was then transferred into the reagent mix, mixed well, and incubated for additional 30 min at room temperature. A 500 μL of cDNA/Lipofectamine complex was then transferred to the wells of the cell plate in which the culture medium was changed to 2 mL of transfection medium containing DMEM with 4.5 g/L D-glucose supplemented with 10% FBS-HI and 20 mM HEPES. Transfected cells were cultured for 48 h in an incubator at 37° C. and 5% CO2. A subclone or pool from each overexpressing cell line was maintained in culture medium with the addition of 2 mg/mL G418 sulfate for the clone selection based on its built-in resistance to G418 sulfate for at least 3 weeks with medium changed every 2-3 days.
NPRs were overexpressed in T-Rex™ HEK293 cells following the induction with 300 ng/mL tetracycline in culture medium for 48 h. Induced cell lines in an exponential growth phase were treated with 0.05% trypsin-EDTA for a few seconds at room temperature, harvested in cell medium containing FBS to neutralize the trypsin, counted, and cryopreserved at the density of 2 million cells/mL in cell preservation solution containing FBS-HI with 5% DMSO. Cryopreserved cells were stored at −80° C. for a few days prior to transferring to a liquid nitrogen tank. Induced cell lines were then used for suspension assays to measure the activity of polypeptides to stimulate cGMP production in cGMP assays or for the preparation of cell membranes to measure the binding activity of polypeptides in competitive radioligand binding assays, as described below.
Test polypeptides were added starting at 10 μM concentration and at 10-fold decreasing concentrations to obtain 8-point concentration-response curves (i.e., 10 μM to 1 pM). The quantity of cGMP generated was detected using HTRF® technology and normalized to maximum amount produced by 100 nM amidated rat ANP and the minimum amount produced by assay buffer. Detailed steps are outlined below.
Stock solutions of test polypeptides (2 mM) dissolved in DMSO were first diluted 100-fold in assay buffer containing HBSS with Ca^2+ and Mg^2+, 5 mM HEPES, 0.5 mM IBMX, and 0.1% BSA or 0.1% casein (pH 7.4). The polypeptides were further serially diluted in 1:10 dilution steps in assay buffer containing 0.1% BSA or 0.1% casein to generate 8-point 2× working stock solutions ranging from 20 μM to […].
A 10 μL cell suspension containing 4000 cells was plated in Costar® half-area white opaque 96-well plates (Corning, cat no. 3693). Then 10 μL of assay buffer (basal activity), 200 nM of amidated rat ANP (maximum activity) or 2× working stock solutions of test polypeptides were transferred into the plate. Final concentration of DMSO in each well was 0.5%. The plate was shaken for 15 sec and then incubated for 40 min at room temperature.
The cGMP generated was measured using cGMP kit following the manufacturer's directions, as described below.

[1] = assay buffer with 0.1% BSA, read-out: cGMP Assay (EC50, pM) w/BSA rNPRA
[2] = cGMP Assay (EC50, pM) w/BSA rNPRA, assay buffer with 0.1% BSA

Row | Structure (SMILES) | EC50 [1] [pM] | EC50 (assay buffer with 0.1% casein, read-out: cGMP Assay (EC50, pM) w/Casein rNPRA) [pM] | EC50 [2] [pM] | EC50 (cGMP Assay (EC50, pM) w/Casein rNPRA, assay buffer with 0.1% casein) [pM]
1 | CC[C@H](C)[C@@H]1NC(=O)[C@H](CCCNC(=N)N)NC(=O)[C@H](CC(=O)O)NC(=O)[C@H]([C@@H](C)CC)NC(=O)[C@H](CCCNC(=N)N)NC(=O)CNC(=O)CNC(=O)[C@H](Cc2ccccc2)NC(=O)[C@@H](NC(=O)[C@H](CO)NC(=O)[C@H](CO)NC(=O)[C@H](CCCNC(=N)N)NC(=O)[C@H](CCCNC(=N)N)NC(=O)[C@H](Cc2ccncc2)NC(=O)[C@H](CO)NC(=O)CNC(=O)[C@H](CCCCN)NC(=O)[C@H](CCC(=O)O)NC(=O)[C@H](CCCCN)NC(=O)[C@H](CCC(=O)O)NC(=O)[C@H](CCCCN)NC(=O)[C@H](CCC(=O)O)NC(=O)CC[C@H](NC(=O)CCCCCCCCCCCCCCCCCCC(=O)O)C(=O)O)CSSC[C@@H](C(=O)N2CCC[C@H]2C(=O)N[C@@H](CO)C(=O)N[C@@H](Cc2ccccc2)C(=O)N[C@@H](CCCNC(=N)N)C(=O)N[C@@H](Cc2c[nH]cn2)C(N)=O)NC(=O)CNC(=O)[C@H](CC(C)C)NC(=O)CNC(=O)[C@H](CO)NC(=O)[C@H](CCC(N)=O)NC(=O)[C@H](C)NC(=O)CNC1=O [Example 22] ({C20 diacid-γGlu}-EKEKEKGS[4Pal]RRSSCFGGRIDRIGAQSGLGCPSFRH-NH2; disulfide 14-30) | 192000 | – | – | –
2 | CC[C@H](C)[C@@H]1NC(=O)[C@H](CCCNC(=N)N)NC(=O)[C@H](CC(=O)O)NC(=O)[C@H]([C@@H](C)CC)NC(=O)[C@H](CCCNC(=N)N)NC(=O)[C@H](CCCCN)NC(=O)CNC(=O)[C@H](Cc2ccccc2)NC(=O)[C@@H](NC(=O)[C@H](CO)NC(=O)[C@H](CO)NC(=O)[C@H](CCCNC(=N)N)NC(=O)[C@H](CCCNC(=N)N)NC(=O)[C@H](Cc2ccncc2)NC(=O)[C@H](CO)NC(=O)CCOCCOCCOCCOCCOCCOCCOCCOCCOCCOCCOCCOCCOCCOCCOCCOCCOCCOCCOCCOCCOCCOCCOCCOCCNC(=O)CNC(=O)[C@H](CCCCN)NC(=O)[C@H](CCC(=O)O)NC(=O)[C@H](CCCCN)NC(=O)[C@H](CCC(=O)O)NC(=O)[C@H](CCCCN)NC(=O)[C@H](CCC(=O)O)NC(=O)CC[C@H](NC(=O)CCCCCCCCCCCCCCCCCCC(=O)O)C(=O)O)CSCSC[C@@H](C(=O)N2CCC[C@H]2C(=O)N[C@@H](CO)C(=O)N[C@@H](Cc2ccccc2)C(=O)N[C@@H](CCCNC(=N)N)C(=O)N[C@@H](Cc2c[nH]cn2)C(=O)NCC(=O)NCC(=O)N[C@@H](CCCCN)C(=O)N[C@@H](CO)C(=O)N[C@@H](CO)C(=O)NCC(=O)N[C@@H](C)C(=O)N2CCC[C@H]2C(=O)N2CCC[C@H]2C(=O)N2CCC[C@H]2C(=O)N[C@@H](CO)C(N)=O)NC(=O)CNC(=O)[C@H](CC(C)C)NC(=O)CNC(=O)[C@H](CO)NC(=O)[C@H](CCC(N)=O)NC(=O)[C@H](Cc2c[nH]cn2)NC(=O)CNC1=O [Example 109] | 276000 | 16800 | – | –
3 | CC[C@H](C)[C@@H]1NC(=O)[C@H](CCCNC(=N)N)NC(=O)[C@H](CC(=O)O)NC(=O)[C@H]([C@@H](C)CC)NC(=O)[C@H](CCCNC(=N)N)NC(=O)[C@H](CCCCN)NC(=O)CNC(=O)[C@H](Cc2ccccc2)NC(=O)[C@@H](NC(=O)[C@H](CO)NC(=O)[C@H](CO)NC(=O)[C@H](CCCNC(=N)N)NC(=O)[C@H](CCCNC(=N)N)NC(=O)[C@H](Cc2ccncc2)NC(=O)[C@H](CO)NC(=O)COCCOCCNC(=O)COCCOCCNC(=O)COCCOCCNC(=O)COCCOCCNC(=O)COCCOCCNC(=O)COCCOCCNC(=O)COCCOCCNC(=O)COCCOCCNC(=O)CNC(=O)[C@H](CCCCN)NC(=O)[C@H](CCC(=O)O)NC(=O)[C@H](CCCCN)NC(=O)[C@H](CCC(=O)O)NC(=O)[C@H](CCCCN)NC(=O)[C@H](CCC(=O)O)NC(=O)CC[C@H](NC(=O)CCCCCCCCCCCCCCCCCCC(=O)O)C(=O)O)CSCSC[C@@H](C(=O)N2CCC[C@H]2C(=O)N[C@@H](CO)C(=O)N[C@@H](Cc2ccccc2)C(=O)N[C@@H](CCCNC(=N)N)C(=O)N[C@@H](Cc2c[nH]cn2)C(=O)NCC(=O)N[C@@H](CO)C(=O)N2CCC[C@H]2C(=O)N[C@@H](CO)C(=O)N[C@@H](CO)C(=O)NCC(=O)N[C@@H](C)C(=O)N2CCC[C@H]2C(=O)N2CCC[C@H]2C(=O)N2CCC[C@H]2C(=O)N[C@@H](CO)C(N)=O)NC(=O)CNC(=O)[C@H](CC(C)C)NC(=O)CNC(=O)[C@H](CO)NC(=O)[C@H](Cc2ccc(O)cc2)NC(=O)[C@H](Cc2c[nH]cn2)NC(=O)CNC1=O [Example 107] | – | – | 149000 | 3770
4 | CC[C@H](C)[C@@H]1NC(=O)[C@H](CCCNC(=N)N)NC(=O)[C@H](CC(=O)O)NC(=O)[C@H]([C@@H](C)CC)NC(=O)[C@H](CCCNC(=N)N)NC(=O)[C@H](CCCCN)NC(=O)CNC(=O)[C@H](Cc2ccccc2)NC(=O)[C@@H](NC(=O)[C@H](CO)NC(=O)[C@H](CO)NC(=O)[C@H](CCCNC(=N)N)NC(=O)[C@H](CCCNC(=N)N)NC(=O)[C@H](Cc2ccncc2)NC(=O)[C@H](CO)NC(=O)COCCOCCNC(=O)COCCOCCNC(=O)COCCOCCNC(=O)COCCOCCNC(=O)COCCOCCNC(=O)COCCOCCNC(=O)CNC(=O)[C@H](CCCCN)NC(=O)[C@H](CCC(=O)O)NC(=O)[C@H](CCCCN)NC(=O)[C@H](CCC(=O)O)NC(=O)[C@H](CCCCN)NC(=O)[C@H](CCC(=O)O)NC(=O)CC[C@H](NC(=O)CCCCCCCCCCCCCCCCCCC(=O)O)C(=O)O)CSCSC[C@@H](C(=O)N2CCC[C@H]2C(=O)N[C@@H](CO)C(=O)N[C@@H](Cc2ccccc2)C(=O)N[C@@H](CCCNC(=N)N)C(=O)N[C@@H](Cc2c[nH]cn2)C(=O)NCC(=O)N[C@@H](CO)C(=O)NCC(=O)N[C@@H](CO)C(=O)N2CCC[C@H]2C(=O)N[C@@H](CO)C(=O)N[C@@H](CO)C(=O)NCC(=O)N[C@@H](C)C(=O)N2CCC[C@H]2C(=O)N2CCC[C@H]2C(=O)N2CCC[C@H]2C(=O)N[C@@H](CO)C(=O)NCC(N)=O)NC(=O)CNC(=O)[C@H](CC(C)C)NC(=O)CNC(=O)[C@H](CO)NC(=O)[C@H](Cc2ccc(O)cc2)NC(=O)[C@H](Cc2c[nH]cn2)NC(=O)CNC1=O [Example 117] | – | – | 200000 | –
